The source of these data is ChEMBL document CHEMBL1201862, “PubChem BioAssay data set” (2004).

Some test systems named below: HCC 2998; HCT-15; HOP-62; HOP-92; HT-29; M14; M19-MEL; MOLT-4; Malme-3M; NCI-H522; OVCAR-4; SF-268; SF-539; SK-OV-3; SW-620; OVCAR-3; OVCAR-5; TK-10.
What all share (assay): NCI tumour cell line growth inhibition, 48 h

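96-well plates; 48 h exposure; 5 concentrations. Endpoints by linear interpolation between flanking doses. Not reached: highest tested concentration assigned. GI50 = concentration required for 50% inhibition of growth.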 The source made the active and inactive calls. No stated cut-off is given here; in the data, active = GI50 up to about 1.1 µM and inactive = higher.

With `CSc1ccc(NC(=O)C2c3[nH]c4ccccc4c3C3CCC(C(C)(C)C)CC3C2C(=O)O)cc1` (stereo unspecified), the GI50 was 33 µM (inactive) in the assay with HCC 2998; 29.2 µM in the assay with HCT-15; 16.9 µM (inactive) in the assay with HOP-62; 23.2 µM (inactive) in the assay on HOP-92; 16.5 µM (inactive) with HT-29; 18.4 µM (inactive) in the assay on M14. The GI50 in the assay with M19-MEL was 21.1 µM (inactive); in the assay on MOLT-4 it was 15.1 µM (inactive); with Malme-3M, 20.9 µM (inactive); in the assay on NCI-H522, 15 µM (inactive); in the assay with OVCAR-4, 18.4 µM (inactive); in the assay on SF-268, 18.9 µM (inactive). Further, the figures for the GI50 with SF-539, with SK-OV-3 and in the assay with SW-620 were 19.7 µM (inactive), 16.5 µM (inactive) and 17.7 µM (inactive), respectively.
As for `CCOC(=O)N1CCC(=O)C[C@@H]1C/C=C/P1(=O)O[C@H](c2ccccc2)C(C)N1C(C)C` (stereo partly specified), the GI50 was > 100 µM (inactive) in the assay on HCC 2998; above 100 µM with HCT-15; > 100 µM (inactive) in the assay on HOP-92; > 100 µM (inactive) with HT-29; > 100 µM (inactive) with M19-MEL; > 100 µM (inactive) in the assay on MOLT-4. Further, the GI50 in the assay on Malme-3M, with NCI-H522, in the assay with OVCAR-3, with OVCAR-4, with OVCAR-5 and with SF-268 was > 100 µM (inactive) throughout. Further, the GI50 with SF-539, in the assay with SK-OV-3, in the assay with SW-620 and in the assay with TK-10 was > 100 µM (inactive) throughout.
For `Cc1c(Cl)cccc1NC(=O)C(=O)C1C(=O)NC(=O)NC1=O`, the GI50 in the assay on HCC 2998 is > 100 µM (inactive); in the assay with HCT-15, above 100 µM; in the assay on HOP-62, > 100 µM (inactive); in the assay with HOP-92, > 100 µM (inactive); with HT-29, > 100 µM (inactive); in the assay on M14 it was > 100 µM (inactive). The GI50 with M19-MEL, in the assay with MOLT-4, in the assay with Malme-3M, in the assay with NCI-H522, with OVCAR-3 and in the assay on OVCAR-4 was > 100 µM (inactive) each time. Further, the GI50 in the assay with OVCAR-5, in the assay on SF-268, in the assay with SF-539, in the assay with SK-OV-3, in the assay on SW-620 and in the assay on TK-10 was > 100 µM (inactive) in each case.
Turning to `O=c1[nH]c(=O)n(C2OC(COP(=O)(O)OP(=O)(O)O)C(O)C2O)cc1F` (stereo unspecified), the GI50 is 0.538 µM (active) in the assay with HCC 2998; 0.446 µM in the assay on HCT-15; 2.24 µM (inactive) with HOP-62; > 50 µM (inactive) in the assay with HOP-92; 0.716 µM (active) in the assay on HT-29; 1.55 µM (inactive) in the assay with M14. Moreover, the GI50 is 1.82 µM (inactive) in the assay with M19-MEL; 0.877 µM (active) with MOLT-4; 0.726 µM (active) in the assay on Malme-3M; 2.48 µM (inactive) in the assay on NCI-H522; 6.34 µM (inactive) in the assay with OVCAR-3; 1.23 µM (inactive) in the assay with OVCAR-4. Moreover, the GI50 in the assay on OVCAR-5 was 7 µM (inactive); in the assay on SF-268 it was 0.298 µM (active); in the assay with SF-539 it was 0.594 µM (active); in the assay on SK-OV-3, 3.92 µM (inactive); in the assay with SW-620 it was 0.171 µM (active); in the assay on TK-10, 15.6 µM (inactive).
Turning to `COc1ccc2c3c(n(Cc4ccccc4)c(=O)c2c1)-c1cc(OC)c(OC)cc1C3C` (stereo unspecified), the GI50 in the assay on HCC 2998 is 36.6 µM (inactive); with HCT-15, 28.1 µM; in the assay with HOP-62, 14.8 µM (inactive); with HOP-92, 14.4 µM (inactive); with HT-29, 25.7 µM (inactive); with M14, 44 µM (inactive). Further, the GI50 was 31.4 µM (inactive) in the assay on M19-MEL; 8.32 µM (inactive) with MOLT-4; 15.6 µM (inactive) with Malme-3M; 9.08 µM (inactive) in the assay with NCI-H522; 15 µM (inactive) with OVCAR-3; 6.61 µM (inactive) in the assay on OVCAR-4. Besides, the GI50 is > 28.4 µM (inactive) in the assay with OVCAR-5; 9.91 µM (inactive) with SF-268; 7.52 µM (inactive) in the assay with SF-539; 18.8 µM (inactive) with SK-OV-3; 35.7 µM (inactive) in the assay with SW-620; > 54.3 µM (inactive) in the assay on TK-10.
For the compound `CCOc1ccc(NC(=O)C(=O)NO)cc1`, the GI50 with HCC 2998 is > 100 µM (inactive); with HCT-15, above 100 µM; with HOP-62 it was > 100 µM (inactive); in the assay with HOP-92 it was > 100 µM (inactive); in the assay on HT-29, > 100 µM (inactive); in the assay with M14 it was > 100 µM (inactive). Besides, the GI50 with M19-MEL, with MOLT-4, in the assay on Malme-3M, in the assay with NCI-H522, in the assay on OVCAR-3 and with OVCAR-4 was > 100 µM (inactive) in each case. Also, the GI50 in the assay on OVCAR-5, with SF-268, with SF-539, in the assay on SK-OV-3, in the assay with SW-620 and in the assay with TK-10 was > 100 µM (inactive) each time.
Consider `Cc1cc(O)nc(CNC(=O)c2cccc3ccccc23)n1`, for which the GI50 with HCC 2998 is > 100 µM (inactive); with HCT-15 it was above 100 µM; in the assay on HOP-62, > 100 µM (inactive); in the assay with HOP-92 it was > 100 µM (inactive); in the assay with HT-29 it was > 100 µM (inactive); in the assay with M14, > 100 µM (inactive). In addition, the GI50 in the assay with M19-MEL, in the assay on MOLT-4, in the assay with Malme-3M, in the assay with NCI-H522, with OVCAR-3 and in the assay on OVCAR-4 was > 100 µM (inactive) in each case. Further, the GI50 in the assay with SF-268, in the assay with SF-539, in the assay on SK-OV-3, with SW-620 and in the assay with TK-10 was > 100 µM (inactive) in each case.
On to `NC1=NC(Cn2nc(-c3ccccc3)c3ccccc3c2=O)=NNC(=O)N1`, for which the GI50 in the assay on HCC 2998 is > 100 µM (inactive); with HCT-15, above 100 µM; with HOP-62, > 100 µM (inactive); with HOP-92 it was > 100 µM (inactive); in the assay with HT-29, > 100 µM (inactive); in the assay on M14 it was > 100 µM (inactive). The GI50 in the assay with M19-MEL, in the assay with MOLT-4, in the assay on Malme-3M, with NCI-H522, in the assay with OVCAR-3 and in the assay on OVCAR-4 was > 100 µM (inactive) throughout. Moreover, the GI50 with OVCAR-5, with SF-268, in the assay on SF-539, in the assay with SK-OV-3, in the assay with SW-620 and in the assay on TK-10 was > 100 µM (inactive) each time.
On to `CC(C)c1ccc2c(c1)CCC1C(C)(C)[C@@H](O)CC[C@]21C` (stereo partly specified), for which the GI50 was 24.8 µM (inactive) with HCC 2998; 32.7 µM in the assay on HCT-15; 19.3 µM (inactive) in the assay with HOP-62; 23.5 µM (inactive) with HOP-92; 16.3 µM (inactive) with HT-29; 27.9 µM (inactive) with M14. For the same compound, the GI50 was 19.4 µM (inactive) with M19-MEL; 22.1 µM (inactive) in the assay with MOLT-4; 17 µM (inactive) with Malme-3M; 25 µM (inactive) with NCI-H522; 34 µM (inactive) in the assay on OVCAR-3; 56.8 µM (inactive) with OVCAR-4. In addition, the GI50 was 18.8 µM (inactive) in the assay on OVCAR-5; 39 µM (inactive) in the assay with SF-268; 22.3 µM (inactive) with SF-539; 68.7 µM (inactive) with SK-OV-3; 54 µM (inactive) in the assay with TK-10.
On to `CCSc1c2ccccc2c(-c2nc(F)nc(F)n2)n1CCc1ccccc1`, for which the GI50 is > 100 µM (inactive) with HCC 2998; above 100 µM in the assay with HCT-15; > 100 µM (inactive) in the assay on HOP-62; > 100 µM (inactive) in the assay on HOP-92; > 100 µM (inactive) in the assay on HT-29; > 100 µM (inactive) with M14. In addition, the GI50 was > 100 µM (inactive) with M19-MEL; 56.4 µM (inactive) with MOLT-4; > 100 µM (inactive) with Malme-3M; > 100 µM (inactive) with NCI-H522; > 100 µM (inactive) with OVCAR-3; > 100 µM (inactive) in the assay with OVCAR-4. For the same compound, the GI50 in the assay on OVCAR-5, in the assay on SF-268, with SF-539, in the assay on SW-620 and in the assay on TK-10 was > 100 µM (inactive) in each case.
For the compound `CC(C)=CCC/C(=C/CC/C(C)=C/CCc1ccoc1)C(=O)O`, the GI50 in the assay on HCC 2998 was > 100 µM (inactive); in the assay with HCT-15 it was above 100 µM; in the assay on HOP-62 it was > 100 µM (inactive); in the assay with HOP-92, > 100 µM (inactive); with HT-29, > 100 µM (inactive); with M14, > 100 µM (inactive). Besides, the GI50 in the assay with M19-MEL, in the assay with MOLT-4, in the assay on Malme-3M, in the assay with NCI-H522, in the assay on OVCAR-3 and with OVCAR-4 was > 100 µM (inactive) throughout. Moreover, the GI50 with OVCAR-5 is 26.5 µM (inactive); with SF-268 it was > 100 µM (inactive); with SF-539, > 100 µM (inactive); in the assay on SK-OV-3, > 100 µM (inactive); in the assay with SW-620, > 100 µM (inactive).
For `c1csc(C[N+]23CN4CN(CN(C4)C2)C3)c1`, the GI50 with HCC 2998 is 19.3 µM (inactive); in the assay with HCT-15, 28.2 µM; in the assay on HOP-62 it was 21.4 µM (inactive); with HOP-92 it was 22.7 µM (inactive); with HT-29, > 100 µM (inactive); in the assay with M14, 17 µM (inactive). For the same compound, the GI50 in the assay with M19-MEL is 25.9 µM (inactive); in the assay with MOLT-4, 21.6 µM (inactive); in the assay with Malme-3M, 18.3 µM (inactive); in the assay with NCI-H522 it was > 100 µM (inactive); in the assay with OVCAR-3, > 100 µM (inactive); in the assay on OVCAR-4, 24.3 µM (inactive). The GI50 is 26.9 µM (inactive) in the assay on OVCAR-5; > 100 µM (inactive) with SF-268; > 100 µM (inactive) in the assay on SF-539; 15.7 µM (inactive) in the assay on SW-620; 26.4 µM (inactive) in the assay with TK-10.
